Assay results: US9636336B2, “Aminoester derivatives” (CHIESI FARMACEUTICI S.p.A., priority 2015, dated 2017)
Like-named read-outs stand apart in the source and are kept apart here.

How the values were obtained:
[1] = target: Human M3 receptor membranes (Homo sapiens (Human), UniProt P20309); experiment: M3 Receptor radioligand binding assay
Method: M3 Receptor Radioligand Binding Assay:
The assay is carried out in 96-well polypropylene plates in a volume of 250 μl. […] The final assay concentration of DMSO is 0.5% (v/v). The plates are sealed and incubated for 2 h at room temperature on an orbital shaker (slow speed). Membranes are harvested onto 96-well unifilter GF/C filter plates pre-treated with 0.5% polyethyleneimine (v/v), using a filter manifold, washed four times with 200 μl of assay buffer. The plates are dried before addition of 50 μl of microscint-0, sealed then read in a Trilux Microbeta scintillation counter. IC50 values are determined from competition curves using a non-linear curve fitting program. Ki values are calculated from IC50 values by the Cheng and Prusoff equation.

Human recombinant PDE4B2 = Human recombinant PDE4B2 (Homo sapiens (Human), UniProt Q07343); experiment: PDE4B2 HTRF assay; type: biochemical
Method: PDE4B2 activity is detected using the LANCE Ultra cAMP homogeneous time resolved fluorescence resonance energy transfer (TR-FRET) assay from Perkin Elmer. The assay is based on the competition between the europium (Eu) chelate-labeled cAMP tracer and sample cAMP for binding sites on cAMP-specific monoclonal antibodies (mAb) labelled with the ULight™ dye. The assay is carried out in 384-well low volume plates in a volume of 10 μl. Human recombinant PDE4B2 (80 pM) is incubated for 2 h with 3 nM cAMP in buffer containing 1×HBSS, 5 mM HEPES, 3 mM MgCl2, 0.1% BSA, pH 7.4 with or without test compounds. The enzymatic reactions are efficiently stopped by the addition of 500 μM IBMX present in the combined Stop/Detection buffer containing europium (Eu) chelate-labeled cAMP tracer and cAMP-specific monoclonal antibodies (mAb) labelled with the ULight™ dye. […] IC50 values are determined from competition curves using a non-linear curve fitting program.

[2] = M3 Receptor radioligand binding assay, read-out: M3 IC50 activity
[3] = PDE4B2 HTRF assay, read-out: PDE4B2 IC50 activity

Sequence of Human M3 receptor membranes (P20309 whole entry): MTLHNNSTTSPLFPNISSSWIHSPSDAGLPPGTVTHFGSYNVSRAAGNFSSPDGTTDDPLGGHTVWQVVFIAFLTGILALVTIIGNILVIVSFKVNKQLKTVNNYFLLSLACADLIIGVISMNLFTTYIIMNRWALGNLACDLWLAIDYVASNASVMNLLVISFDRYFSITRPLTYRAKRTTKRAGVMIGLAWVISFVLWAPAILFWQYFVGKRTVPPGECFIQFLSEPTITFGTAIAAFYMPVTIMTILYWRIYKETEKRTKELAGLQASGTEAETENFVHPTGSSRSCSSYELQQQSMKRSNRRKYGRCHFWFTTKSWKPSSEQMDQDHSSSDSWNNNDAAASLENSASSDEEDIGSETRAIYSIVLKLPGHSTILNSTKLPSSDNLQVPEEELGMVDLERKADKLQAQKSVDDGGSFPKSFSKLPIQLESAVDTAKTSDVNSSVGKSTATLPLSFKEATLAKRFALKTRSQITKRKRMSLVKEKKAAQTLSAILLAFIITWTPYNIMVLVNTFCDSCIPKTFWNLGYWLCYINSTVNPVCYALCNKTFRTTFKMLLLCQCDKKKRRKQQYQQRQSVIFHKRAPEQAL
Sequence of Human recombinant PDE4B2 (Q07343 other isoform, or with tags, fused parts or gaps): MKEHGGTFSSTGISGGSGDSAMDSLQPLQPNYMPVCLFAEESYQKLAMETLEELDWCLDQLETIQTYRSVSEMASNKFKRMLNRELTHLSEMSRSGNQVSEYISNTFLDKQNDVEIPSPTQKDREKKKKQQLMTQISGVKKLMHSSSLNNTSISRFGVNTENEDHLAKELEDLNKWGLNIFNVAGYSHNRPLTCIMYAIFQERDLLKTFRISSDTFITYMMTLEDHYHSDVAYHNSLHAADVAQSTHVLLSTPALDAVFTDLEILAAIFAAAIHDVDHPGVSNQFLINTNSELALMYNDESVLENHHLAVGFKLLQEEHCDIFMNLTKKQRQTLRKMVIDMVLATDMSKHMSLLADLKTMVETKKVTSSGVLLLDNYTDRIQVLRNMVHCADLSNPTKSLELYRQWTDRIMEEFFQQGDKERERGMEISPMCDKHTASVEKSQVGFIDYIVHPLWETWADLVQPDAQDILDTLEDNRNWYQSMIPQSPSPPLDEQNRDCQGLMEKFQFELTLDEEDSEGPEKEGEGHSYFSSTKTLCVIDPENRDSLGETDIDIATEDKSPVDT

| SMILES | IC50 [1, 2] [µM] | IC50 (Human recombinant PDE4B2; [3]) [µM] | IC50 [1] [µM] | IC50 (Human recombinant PDE4B2) [µM] |
| --- | --- | --- | --- | --- |
| COc1ccc([C@H](Cc2c(Cl)c[n+]([O-])cc2Cl)OC(=O)c2ccc(CNC(C(=O)OC[C@@H]3CCN(C)C3)c3ccccc3)s2)cc1OC (stereo partly drawn) [Example 17, [(1S)-2-(3,5-dichloro-1-oxido-pyridin-1-ium-4-yl)-1-(3,4-dimethoxyphenyl)ethyl] 5-[[[2-[[(3R)-1-methylpyrrolidin-3-yl]methoxy]-2-oxo-1-phenyl-ethyl]amino]methyl]thiophene-2-carboxylate] | 0.001 to 0.01 | 0.001 to 0.01 |  |  |
| COc1ccc([C@H](Cc2c(Cl)c[n+]([O-])cc2Cl)OC(=O)c2ccc(CNC(C(=O)OC[C@H]3CCN(C)C3)c3ccccc3)s2)cc1OC (stereo partly drawn) [Example 18, [(1S)-2-(3,5-dichloro-1-oxido-pyridin-1-ium-4-yl)-1-(3,4-dimethoxyphenyl)ethyl] 5-[[[2-[[(3S)-1-methylpyrrolidin-3-yl]methoxy]-2-oxo-1-phenyl-ethyl]amino]methyl]thiophene-2-carboxylate] | 0.001 to 0.01 | 0.001 to 0.01 |  |  |
| COc1ccc([C@H](Cc2c(Cl)c[n+]([O-])cc2Cl)OC(=O)c2ccc(CNC(C(=O)OC[C@@H]3CCCN(C)C3)c3ccccc3)s2)cc1OC (stereo partly drawn) [Example 49, [(1S)-2-(3,5-dichloro-1-oxido-pyridin-1-ium-4-yl)-1-(3,4-dimethoxyphenyl)ethyl]5-[[[2-[[(3R)-1-methyl-3-piperidyl]methoxy]-2-oxo-1-phenyl-ethyl]amino]methyl]thiophene-2-carboxylate] | 0.01 to 0.1 | 0.001 to 0.01 |  |  |
| COc1ccc([C@H](Cc2c(Cl)c[n+]([O-])cc2Cl)OC(=O)c2ccc(CNC(C(=O)OCC3CN(C)C3)c3ccccc3)s2)cc1OC (stereo partly drawn) [Example 25, [(1S)-2-(3,5-dichloro-1-oxido-pyridin-1-ium-4-yl)-1-(3,4-dimethoxyphenyl)ethyl] 5-[[[2-[(1-methylazetidin-3-yl)methoxy]-2-oxo-1-phenyl-ethyl]amino]methyl]thiophene-2-carboxylate] | 0.001 to 0.01 | 0.001 to 0.01 |  |  |
| COc1ccc([C@H](Cc2c(Cl)c[n+]([O-])cc2Cl)OC(=O)c2ccc(CNCC(O)(C(=O)OCC3CCN(C)CC3)c3cccs3)s2)cc1OC (stereo partly drawn) [Example 1, [(1S)-2-(3,5-dichloro-1-oxido-pyridin-1-ium-4-yl)-1-(3,4-dimethoxyphenyl)ethyl]5-[[[2-hydroxy-3-[(1-methyl-4-piperidyl)methoxy]-3-oxo-2-(2-thienyl)propyl]amino]methyl]-thiophene-2-carboxylate] |  |  | 0.01 to 0.1 | 0.001 to 0.01 |
| COc1ccc([C@H](Cc2c(Cl)c[n+]([O-])cc2Cl)OC(=O)c2ccc(CNC(CO)(C(=O)OCC34CCN(CC3)CC4)c3ccccc3)s2)cc1OC (stereo partly drawn) [Example 117, [(1S)-2-(3,5-dichloro-1-oxido-pyridin-1-ium-4-yl)-1-(3,4-dimethoxyphenyl)ethyl]5-[[[1-(hydroxymethyl)-2-oxo-1-phenyl-2-(quinuclidin-4-ylmethoxy)ethyl]amino]methyl]thiophene-2-carboxylate] | < 0.001 | 0.001 to 0.01 |  |  |
| COc1ccc([C@H](Cc2c(Cl)c[n+]([O-])cc2Cl)OC(=O)c2ccc(CNCC(C(=O)OCC3CCN(C)CC3)c3ccccc3)s2)cc1OC (stereo partly drawn) [Example 7, [(1S)-2-(3,5-dichloro-1-oxido-pyridin-1-ium-4-yl)-1-(3,4-dimethoxyphenyl)ethyl]5-[[[3-[(1-methyl-4-piperidyl)methoxy]-3-oxo-2-phenyl-propyl]amino]methyl]thiophene-2-carboxylate] | 0.01 to 0.1 | 0.001 to 0.01 |  |  |
| COc1ccc([C@H](Cc2c(Cl)c[n+]([O-])cc2Cl)OC(=O)c2ccc(CNC(C(=O)OC[C@@H]3CCCN(C)C3)c3ccccc3)s2)cc1OC (stereo partly drawn) [Example 14, [(1S)-2-(3,5-dichloro-1-oxido-pyridin-1-ium-4-yl)-1-(3,4-dimethoxyphenyl)ethyl]5-[[[2-[[(3R)-1-methyl-3-piperidyl]methoxy]-2-oxo-1-phenyl-ethyl]amino]methyl]thiophene-2-carboxylate] | 0.001 to 0.01 | 0.001 to 0.01 |  |  |
